SMILES strings stand for the structures.

Data set [1] deals with Human immunodeficiency virus 1. Nature of the data set: Antiviral activity against HIV-1 3B infected in human TZM-bl cells treated for 2 hrs followed by compound washout measured after 2 days by luciferase reporter assay. In kind it is functional, organism-based.
The nature of data set [2]: Selectivity index, ratio of CC50 for human TZM-bl cells to IC50 for HIV-1 3B infected in human TZM-bl cells. It is filed as toxicity, cell-based. Conditions: for selectivity ratio: TZM-bl cells, read-out: Ratio CC50/IC50.
The next data set deals with TZM. Nature of the data set: (§1) Cytotoxicity against human TZM-bl cells after 72 hrs by MTT assay. It is filed as cell-based. Conditions: tzm, 72 h. A general note: Formazan colour is commonly taken as a measure of viable cells.
The nature of data set [3]: as §1. In kind it is cell-based. Conditions: TZM-bl cells.
[4] abbreviates: Human immunodeficiency virus 1, 3B, TZM-bl.

For the compound `Cc1cc2c(c(O)c1-c1c(C)cc3c(c1O)/C(=C/NC(C)C(=O)NC(Cc1ccccc1)C(=O)[O-])C(=O)C(O)=C3C(C)C)/C(=C/NC(C)C(=O)NC(Cc1ccccc1)C(=O)[O-])C(=O)C(O)=C2C(C)C.[Na+].[Na+]` (stereo in doubt; (-)-5a), half-maximal inhibition in data set [1] (IC50) was put at 1.62 µM. In data set [2], the “Ratio CC50/IC50” value worked out at 20.57. Moreover, in the data set with TZM, it took 33.3 µM to reach half-maximal cytotoxicity (CC50).
Take `Cc1cc2c(c(O)c1-c1c(C)cc3c(c1O)/C(=C/N[C@@H](Cc1ccccc1)C(=O)[O-])C(=O)C(O)=C3C(C)C)/C(=C/N[C@@H](Cc1ccccc1)C(=O)[O-])C(=O)C(O)=C2C(C)C.[Na+].[Na+]` (stereo in doubt; (+)-13b): in data set [1] (setting [4]), 8.21 µM corresponded to half-maximal inhibition (IC50). For the same compound, in data set [2], the “Ratio CC50/IC50” value is recorded as 6.55. In data set [3], this compound gave a CC50 at 72 h of 53.8 µM.
`Cc1cc2c(c(O)c1-c1c(C)cc3c(c1O)/C(=C/NC(C)C(=O)NC(Cc1ccccc1)C(=O)[O-])C(=O)C(O)=C3C(C)C)/C(=C/NC(C)C(=O)NC(Cc1ccccc1)C(=O)[O-])C(=O)C(O)=C2C(C)C.[Na+].[Na+]` (stereo in doubt; (+)-5b): 6.32 µM corresponded to half-maximal inhibition in data set [1] (IC50). For the same compound, in data set [2], the “Ratio CC50/IC50” value worked out at 7.97. Further, in data set [3], the CC50 at 72 h was 50.3 µM.
In data set [1], `Cc1cc2c(c(O)c1-c1c(C)cc3c(c1O)/C(=C/NCC(=O)NCC(=O)NCC(=O)[O-])C(=O)C(O)=C3C(C)C)/C(=C/NCC(=O)NCC(=O)NCC(=O)[O-])C(=O)C(O)=C2C(C)C.[Na+].[Na+]` (stereo in doubt; (-)-6a) came in with an IC50 of 1.38 µM. The “Ratio CC50/IC50” value in data set [2] is 31.71. For the same compound, in the data set with TZM, the CC50 was 43.8 µM.
`Cc1cc2c(c(O)c1-c1c(C)cc3c(c1O)/C(=C/NC(C)C(=O)NCC(=O)[O-])C(=O)C(O)=C3C(C)C)/C(=C/NC(C)C(=O)NCC(=O)[O-])C(=O)C(O)=C2C(C)C.[Na+].[Na+]` (single isomer, unassigned; (+)): the concentration for half-maximal inhibition (IC50) in data set [1] was found to be 4.28 µM. Moreover, the “Ratio CC50/IC50” value in data set [2] was 14.28. The midpoint of cytotoxicity in data set [3], the CC50 at 72 h, lay at 61.1 µM.
As for `Cc1cc2c(c(O)c1-c1c(C)cc3c(c1O)/C(=C/N[C@@H](C)C(=O)[O-])C(=O)C(O)=C3C(C)C)/C(=C/N[C@@H](C)C(=O)[O-])C(=O)C(O)=C2C(C)C.[Na+].[Na+]` (stereo in doubt; (-)-8a), in data set [1], the IC50 was 0.35 µM. In data set [2], the “Ratio CC50/IC50” value came out at 183.29. The CC50 with TZM turned out to be 64.2 µM.
Taken in the same sequence, the figures for `Cc1cc2c(c(O)c1-c1c(C)cc3c(c1O)/C(=C/NC(C)C(=O)NC(C)C(=O)NC(C)C(=O)[O-])C(=O)C(O)=C3C(C)C)/C(=C/NC(C)C(=O)NC(C)C(=O)NC(C)C(=O)[O-])C(=O)C(O)=C2C(C)C.[Na+].[Na+]` (single isomer, unassigned; (-)) were 1.45 µM, 27.19 and 39.4 µM.
Consider `Cc1cc2c(c(O)c1-c1c(C)cc3c(c1O)/C(=C/NC(C)C(=O)NCC(=O)O)C(=O)C(O)=C3C(C)C)/C(=C/NC(C)C(=O)NCC(=O)O)C(=O)C(O)=C2C(C)C` (single isomer, unassigned; (-)), for which inhibition in data set [1] was half-maximal at 1.56 µM (IC50). Further, in data set [2], the selectivity ratio stood at 25.8. For the same compound, the CC50 in the data set on TZM worked out at 40.3 µM.
The compound `Cc1cc2c(c(O)c1-c1c(C)cc3c(c1O)/C(=C/N[C@@H]1[C@@H](O)[C@H](O)[C@@H](CO)O[C@H]1O)C(=O)C(O)=C3C(C)C)/C(=C/N[C@@H]1[C@@H](O)[C@H](O)[C@@H](CO)O[C@H]1O)C(=O)C(O)=C2C(C)C` (stereo in doubt; (+)-1b) returned an IC50 in data set [1] of 7.64 µM. Moreover, in data set [2], the “Ratio CC50/IC50” value is given as 4.3. The compound further registered a CC50 at 72 h in data set [3] of 32.9 µM.
Taken in the same sequence, the figures for `Cc1cc2c(c(O)c1-c1c(C)cc3c(c1O)/C(=C/NC(CC(=O)[O-])C(=O)NC(C)C(=O)[O-])C(=O)C(O)=C3C(C)C)/C(=C/NC(CC(=O)[O-])C(=O)NC(C)C(=O)[O-])C(=O)C(O)=C2C(C)C.[Na+].[Na+].[Na+].[Na+]` (stereo in doubt; (+)-4b) were 5.35 µM, 9.56 and 51.2 µM.
For `Cc1cc2c(c(O)c1-c1c(C)cc3c(c1O)/C(=C/NC(C)C(=O)NC(C)C(=O)NC(C)C(=O)[O-])C(=O)C(O)=C3C(C)C)/C(=C/NC(C)C(=O)NC(C)C(=O)NC(C)C(=O)[O-])C(=O)C(O)=C2C(C)C.[Na+].[Na+]` (single isomer, unassigned; (+)) the same measures were 6.39 µM, 9.19 and 58.7 µM.
Taken in the same sequence, the figures for `Cc1cc2c(c(O)c1-c1c(C)cc3c(c1O)/C(=C/N[C@@H](C)C(=O)[O-])C(=O)C(O)=C3C(C)C)/C(=C/N[C@@H](C)C(=O)[O-])C(=O)C(O)=C2C(C)C.[Na+].[Na+]` (stereo in doubt; (+)-8b) were 4.13 µM, 17.59 and 72.6 µM.
In turn, `Cc1cc2c(c(O)c1-c1c(C)cc3c(c1O)/C(=C/NC(C)S(=O)(=O)[O-])C(=O)C(O)=C3C(C)C)/C(=C/NC(C)S(=O)(=O)[O-])C(=O)C(O)=C2C(C)C.[Na+].[Na+]` (single isomer, unassigned; (+)) registered an IC50 in data set [1] (setting [4]) of 1.97 µM. The “Ratio CC50/IC50” value in data set [2] was 27.81. Further, the CC50 at 72 h in data set [3] stood at 54.8 µM.
Compound `Cc1cc2c(c(O)c1-c1c(C)cc3c(c1O)/C(=C/N[C@H](C(=O)[O-])C(C)C)C(=O)C(O)=C3C(C)C)/C(=C/N[C@H](C(=O)[O-])C(C)C)C(=O)C(O)=C2C(C)C.[Na+].[Na+]` (stereo in doubt; (-)-9a) gave a half-inhibitory concentration (IC50) in data set [1] of 0.49 µM. In addition, the “Ratio CC50/IC50” value in data set [2] is on record as 101.82. Besides, the CC50 in the data set with TZM came out at 49.9 µM.
The compound `CC[C@H](C)[C@H](N/C=C1\C(=O)C(O)=C(C(C)C)c2cc(C)c(-c3c(C)cc4c(c3O)/C(=C/N[C@H](C(=O)[O-])[C@@H](C)CC)C(=O)C(O)=C4C(C)C)c(O)c21)C(=O)[O-].[Na+].[Na+]` (stereo in doubt; (-)-11a) had an IC50 in data set [1] of 0.47 µM. Further, the “Ratio CC50/IC50” value in data set [2] amounted to 132.29. The same compound displayed a CC50 in the data set with TZM of 62.2 µM.
In the case of `Cc1cc2c(c(O)c1-c1c(C)cc3c(c1O)/C(=C/NC(CC(=O)[O-])C(=O)NC(C)C(=O)[O-])C(=O)C(O)=C3C(C)C)/C(=C/NC(CC(=O)[O-])C(=O)NC(C)C(=O)[O-])C(=O)C(O)=C2C(C)C.[Na+].[Na+].[Na+].[Na+]` (single isomer, unassigned; (-)), the IC50 in data set [1] worked out at 1.25 µM. Also, in data set [2], the “Ratio CC50/IC50” value is reported as 34.1. The compound further came in with a CC50 in the data set with TZM of 42.6 µM.
In data set [1], `Cc1cc2c(c(O)c1-c1c(C)cc3c(c1O)/C(=C/N[C@@H](Cc1ccccc1)C(=O)O)C(=O)C(O)=C3C(C)C)/C(=C/N[C@@H](Cc1ccccc1)C(=O)O)C(=O)C(O)=C2C(C)C` (stereo in doubt; (-)-13a) gave an IC50 of 6.99 µM. The selectivity ratio in data set [2] worked out at 5.39. In the data set with TZM, this compound had a CC50 of 37.7 µM.
The compound `Cc1cc2c(c(O)c1-c1c(C)cc3c(c1O)/C(=C/N[C@@H](CC(C)C)C(=O)[O-])C(=O)C(O)=C3C(C)C)/C(=C/N[C@@H](CC(C)C)C(=O)[O-])C(=O)C(O)=C2C(C)C.[Na+].[Na+]` (stereo in doubt; (-)-10a) displayed an IC50 in data set [1] of 0.68 µM. In addition, the “Ratio CC50/IC50” value in data set [2] is on record as 78.41. Further, the midpoint of cytotoxicity in the data set with TZM, the CC50, lay at 53.3 µM.
For `Cc1cc2c(c(O)c1-c1c(C)cc3c(c1O)/C(=C/N[C@@H](Cc1c[nH]c4ccccc14)C(=O)[O-])C(=O)C(O)=C3C(C)C)/C(=C/N[C@@H](Cc1c[nH]c3ccccc13)C(=O)[O-])C(=O)C(O)=C2C(C)C.[Na+].[Na+]` (stereo in doubt; (-)-12a) the same measures were 1.08 µM, 44.66 and 48.2 µM.

For orientation: IC50 means the midpoint of a concentration-inhibition curve. A lower IC50 goes with greater potency. One may read the CC50 as the concentration at which the toxic effect on the cells reaches its halfway point. A high value points to lower toxicity to the cells.
